# Key:
# Experiment in all cases: relative viability (nuclei count vs DMSO), 5 days (fraction); higher = more cells survive
# Venetoclax + Foretinib = compound: CC1(C)CCC(CN2CCN(c3ccc(C(=O)NS(=O)(=O)c4ccc(NCC5CCOCC5)c([N+](=O)[O-])c4)c(Oc4cnc5[nH]ccc5c4)c3)CC2)=C(c2ccc(Cl)cc2)C1 [Venetoclax] + COc1cc2c(Oc3ccc(NC(=O)C4(C(=O)Nc5ccc(F)cc5)CC4)cc3F)ccnc2cc1OCCCN1CCOCC1 [Foretinib] (partner 0.25 µM)
# Procedure, shortened: (§1)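 Medians of duplicate plates are given as relative viability. That measure is the nuclei count in treated wells divided by the count in vehicle wells. Counts were taken on 4× images of lung cancer cell lines in 1536-well plates, 5 days after pin-tool dosing the day after seeding with one drug alone or a fixed anchor-drug dose plus five library-drug doses (not always all listed) in √10 steps.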
# Venetoclax + Pemetrexed = compound: CC1(C)CCC(CN2CCN(c3ccc(C(=O)NS(=O)(=O)c4ccc(NCC5CCOCC5)c([N+](=O)[O-])c4)c(Oc4cnc5[nH]ccc5c4)c3)CC2)=C(c2ccc(Cl)cc2)C1 [Venetoclax] + Nc1nc2[nH]cc(CCc3ccc(C(=O)N[C@@H](CCC(=O)O)C(=O)O)cc3)c2c(=O)[nH]1 [Pemetrexed] (partner 0.2 µM)
# Procedure, shortened: as §1
# Selumetinib + Bortezomib = compound: Cn1cnc2c(F)c(Nc3ccc(Br)cc3Cl)c(C(=O)NOCCO)cc21 [Selumetinib] + CC(C)C[C@H](NC(=O)[C@H](Cc1ccccc1)NC(=O)c1cnccn1)B(O)O [Bortezomib] (partner 0.002 µM)
# Procedure, shortened: as §1
# Selumetinib + Crizotinib = compound: Cn1cnc2c(F)c(Nc3ccc(Br)cc3Cl)c(C(=O)NOCCO)cc21 [Selumetinib] + C[C@@H](Oc1cc(-c2cnn(C3CCNCC3)c2)cnc1N)c1c(Cl)ccc(F)c1Cl [Crizotinib] (partner 1 µM)
# Procedure, shortened: as §1
cell line,measurement,setting,value
UMC-11,relative viability,Venetoclax + Foretinib; first compound 0.01 µM,1.08
same,relative viability,Venetoclax + Foretinib; first compound 0.03162 µM,1.05
same,relative viability,Venetoclax + Foretinib; first compound 0.1 µM,1.01
same,relative viability,Venetoclax + Foretinib; first compound 0.3162 µM,0.961
same,relative viability,Venetoclax + Foretinib; first compound 1 µM,0.913
same,relative viability,Venetoclax + Pemetrexed; first compound 0.01 µM,0.782
same,relative viability,Venetoclax + Pemetrexed; first compound 0.03162 µM,0.666
same,relative viability,Venetoclax + Pemetrexed; first compound 0.1 µM,0.731
same,relative viability,Venetoclax + Pemetrexed; first compound 0.3162 µM,0.752
same,relative viability,Venetoclax + Pemetrexed; first compound 1 µM,0.736
same,relative viability,Selumetinib + Bortezomib; first compound 0.02 µM,0.685
same,relative viability,Selumetinib + Bortezomib; first compound 0.06325 µM,0.589
same,relative viability,Selumetinib + Bortezomib; first compound 0.2 µM,0.974
same,relative viability,Selumetinib + Bortezomib; first compound 0.6325 µM,0.848
same,relative viability,Selumetinib + Crizotinib; first compound 0.02 µM,0.686
same,relative viability,Selumetinib + Crizotinib; first compound 0.06325 µM,0.594
same,relative viability,Selumetinib + Crizotinib; first compound 0.2 µM,0.515
same,relative viability,Selumetinib + Crizotinib; first compound 0.6325 µM,0.645

# From the supplement of paper PMC10307832
